Data as given in PMC8589421, “Impact of Type II LRRK2 inhibitors on signaling and mitophagy” (Biochemical Journal, 2021).
Read-outs that look alike come from different tables or passages of the source.

Assays:
[1] = system: mouse embryonic fibroblast cells (MEFs); test: Cell morphology and attachment of MEFs; format: cell-based
[2] = system: Dundee panel of 140 protein kinases; test: Kinase profiling; format: biochemical
Excerpt: […] Results for each kinase are presented as the mean kinase activity ±S.D. for an assay undertaken in duplicate relative to a control kinase assay in which the inhibitor was omitted. Abbreviations and assay conditions used for each kinase are available (http://www.kinase-screen.mrc.ac.uk/services/premier-screen).

LRRK2 at Ser935 = test: LRRK2 Ser935 phospho-immunoblot in wild-type MEFs; format: cell-based, mouse; details: MEFs, 2 h dose response
Experimental: (§1) Wild-type and homozygous LRRK2 [R1441C] […] All cells were grown at 37°C, 5% (by vol) CO2 in a humidified atmosphere and regularly tested for mycoplasma contamination.
(§2) Inhibitors were dissolved in dimethyl sulfoxide (DMSO) (Sigma, #D2650). The inhibitors were diluted 1000× into cell medium. The equivalent volume of DMSO was added to the minus inhibitor controls. Experiments were performed in six-well plates, 10 cm dishes or 15 cm dishes depending on the amount of cell extract required.
(§3) Lysates were incubated on ice for 30 min and clarified by centrifugation at 20 800×g at 4°C for 20 min. Supernatants were quantified by Bradford assay (Bio-Rad Protein Assay Dye Reagent Concentrate #5000006) and samples prepared in 1× lithium dodecyl sulfate sample buffer final concentration (NuPage LDS Sample buffer 4× Invitrogen, #NP0008). When not deployed immediately, lysates were snap-frozen in liquid nitrogen and stored at −80°C until use.
(§4) Cell extracts were mixed with a quarter of a volume of NuPage LDS Sample buffer 4× Invitrogen and heated at 95°C for 5 min. […] At the end of electrophoresis, proteins were electrophoretically transferred onto the nitrocellulose membrane (GE Healthcare, Amersham Protran Supported 0.45 µm NC) at 100 V for 90 min on ice in the transfer buffer (48 mM Tris–HCl and 39 mM glycine supplemented with 20% methanol). Transferred membrane was blocked with 5% (w/v) skim milk powder dissolved in TBS-T [20 mM Tris–HCl, pH 7.5, 150 mM NaCl and 0.1% (v/v) Tween 20] at room temperature for 1 h. The membrane was typically cropped into three pieces, namely the ‘top piece’ (from the top of the membrane to 75 kDa), the ‘middle piece’ (between 75 and 30 kDa) and the ‘bottom piece’ (from 30 kDa to the bottom of the membrane). All primary antibodies were used at 1 μg/ml final concentration and incubated in TBS-T containing 5% (by mass) bovine serum albumin with exception of α-tubulin and GAPDH antibodies that were diluted 1 : 5000 and 1 : 2000, respectively. The top piece was incubated with the indicated rabbit anti-LRRK2 phosphorylation site antibody multiplexed with mouse anti-LRRK2 C-terminus total antibody. The middle piece was incubated with mouse anti-GAPDH or anti-α-tubulin antibody. The bottom pieces were incubated with indicated total and phospho-Rab antibodies. Membranes were incubated in primary antibody overnight at 4°C. Prior to secondary antibody incubation, membranes were washed three times with TBS-T for 10 min each. […] Membranes were washed with TBS-T for three times with a 10 min incubation for each wash. Protein bands were acquired via near infrared fluorescent detection using the Odyssey CLx imaging system and quantified using the Image Studio software.

[3] = system: LRRK2 mediated phosphorylation of Rab10 at Thr73; test: Rab10 Thr73 phospho-immunoblot in wild-type MEFs; format: cell-based, mouse; details: Mus musculus, 2 h
Experimental: as §1, §2, §3, §4

[4] = system: Rab10 phosphorylation, LRRK2[A2016T]; test: Rab10 Thr73 phospho-immunoblot in inhibitor resistant LRRK2[A2016T] knock-in MEFs; format: cell-based, mouse; details: 2 h, up to 3 µM
Experimental: (§5) Wild-type and homozygous LRRK2 [R1441C] (Jax, stock number: 009346), LRRK2[G2019S] Taconic, (model 13940) and LRRK2 [A2016T] (Jax, stock number: 021828)[7] knock-in MEF cells were isolated from littermate-matched mouse embryos on a C57BL/6J background at day E12.5 as described previously. MEFs were grown in Dulbecco's modified Eagle medium (DMEM GIBCO, #11960-085) containing 10% (by vol) fetal bovine serum (FBS), 2 mM L-glutamine, 100 U/ml penicillin, and […] streptomycin supplemented with non-essential amino acids and 1 mM sodium pyruvate. Human embryonic kidney 293 (HEK293) (#ATCC CRL-1573) and HeLa (#ATCC CCL-2) cells were purchased from American Tissue Culture Collection (ATCC) and cultured in DMEM containing 10% (by vol) FBS, 2 mM L-glutamine, 100 U/ml penicillin, and […] streptomycin. All cells were grown at 37°C, 5% (by vol) CO2 in a humidified atmosphere and regularly tested for mycoplasma contamination.
as §2
(§6) Cells were lysed in an ice-cold lysis buffer containing 50 mM Tris–HCl, pH 7.4, 1% (by vol) Triton X-100, 10% (by vol) glycerol, 150 mM NaCl, 1 mM sodium orthovanadate, 50 mM NaF, 10 mM 2-glycerophosphate, 5 mM sodium pyrophosphate, 1 µg/ml microcystin-LR, and cOmplete EDTA-free protease inhibitor cocktail (Roche, #11836170001). Lysates were incubated on ice for 30 min and clarified by centrifugation at 20 800×g at 4°C for 20 min. Supernatants were quantified by Bradford assay (Bio-Rad Protein Assay Dye Reagent Concentrate #5000006) and samples prepared in 1× lithium dodecyl sulfate sample buffer final concentration (NuPage LDS Sample buffer 4× Invitrogen, #NP0008). When not deployed immediately, lysates were snap-frozen in liquid nitrogen and stored at −80°C until use. […]

[5] = system: Rab10 pThr73, LRRK2 [G2019S]; test: Rab10 Thr73 phospho-immunoblot in LRRK2[G2019S] knock-in MEFs; format: cell-based, mouse; details: Mus musculus, 2 h, read-out: LRRK2 [G2019S] Rab10 pThr73 IC50
Experimental: as §5, §2, §6

[6] = system: LRRK2 Ser935 phosphorylation, LRRK2[R1441C]; test: LRRK2 Ser935 phospho-immunoblot in LRRK2[R1441C] knock-in MEFs; format: cell-based, mouse; details: dose and time dependent
Experimental: as §5, §2
Cells were lysed in an ice-cold lysis buffer containing 50 mM Tris–HCl, pH 7.4, 1% (by vol) Triton X-100, 10% (by vol) glycerol, 150 mM NaCl, 1 mM sodium orthovanadate, 50 mM NaF, 10 mM 2-glycerophosphate, 5 mM sodium pyrophosphate, 1 µg/ml microcystin-LR, and cOmplete EDTA-free protease inhibitor cocktail (Roche, #11836170001). Lysates were incubated on ice for 30 min and clarified by centrifugation at 20 800×g at 4°C for 20 min. Supernatants were quantified by Bradford assay (Bio-Rad Protein Assay Dye Reagent Concentrate #5000006) and samples prepared in 1× lithium dodecyl sulfate sample buffer final concentration (NuPage LDS Sample buffer 4× Invitrogen, #NP0008). When not deployed immediately, lysates were snap-frozen in liquid nitrogen and stored at −80°C until use.
Cell extracts were mixed with a quarter of a volume of NuPage LDS Sample buffer 4× Invitrogen and heated at 95°C for 5 min. […] At the end of electrophoresis, proteins were electrophoretically transferred onto the nitrocellulose membrane (GE Healthcare, Amersham Protran Supported 0.45 µm NC) at 100 V for 90 min on ice in the transfer buffer (48 mM Tris–HCl and 39 mM glycine supplemented with 20% methanol). Transferred membrane was blocked with 5% (w/v) skim milk powder dissolved in TBS-T [20 mM Tris–HCl, pH 7.5, 150 mM NaCl and 0.1% (v/v) Tween 20] at room temperature for 1 h. […]

[7] = system: Rab10 pThr73, LRRK2 [R1441C]; test: Rab10 Thr73 phospho-immunoblot in LRRK2[R1441C] knock-in MEFs; format: cell-based, mouse; details: Mus musculus, 2 h, read-out: LRRK2 [R1441C] Rab10 pThr73 IC50
Experimental: as §5, §2, §6

Cc1ccc(C(=O)Nc2ccc(CN3CCN(C)CC3)c(C(F)(F)F)c2)cc1C#Cc1cnc2cccnn12 [Ponatinib]
concentration that impacted cell morphology and attachment [1]: above 10 μM | number of the 140 kinases assayed suppressed by over 80% ([2]; 0.1 μM inhibitor): 14 | number of the 140 kinases assayed suppressed by over 80% ([2]; 1 μM inhibitor): 20 | effect on LRRK2 Ser935 phosphorylation (LRRK2 at Ser935): without affecting Ser935 phosphorylation | inhibition at 10 µM ([3]; wild-type MEFs, 10 μM): ~50%

C[C@@H]1CN(c2cc(-c3n[nH]c4ccc(OC5(C)CC5)cc34)ncn2)C[C@H](C)O1 [MLi-2]
effect of A2016T mutation on inhibition of Rab10 phosphorylation [4]: markedly suppressed inhibition of Rab10 phosphorylation | effect on LRRK2 Ser935 phosphorylation (LRRK2 at Ser935): complete dephosphorylation

CNC(=O)c1cc(Oc2ccc(NC(=O)Nc3cc(C(C)(C)C)nn3-c3ccc4ncccc4c3)c(F)c2)ccn1 [Rebastinib]
IC50 [5]: 1070 nM | effect of A2016T mutation on inhibition of Rab10 phosphorylation [4]: markedly blocked | number of the 140 kinases assayed suppressed by over 80% ([2]; 1 μM inhibitor): 18 | effect on Ser935 phosphorylation in LRRK2[R1441C] knock-in cells [6]: rescue Ser935 phosphorylation | effect on LRRK2 Ser935 phosphorylation (LRRK2 at Ser935): did not induce dephosphorylation of Ser935 | IC50 ([3]; read-out: LRRK2 WT Rab10 pThr73 IC50, wild type MEFs littermate matched to LRRK2[G2019S], 2 h, panel (B)): 478 nM | IC50 ([3]; read-out: LRRK2 WT Rab10 pThr73 IC50, wild type MEFs littermate matched to LRRK2[R1441C], 2 h, panel (A)): 539 nM | IC50 [7]: 1310 nM
